Our source for the Kd values is publication PMC7536232, “Saturation transfer difference NMR on the integral trimeric membrane transport protein GltPh determines cooperative substrate binding” (Scientific Reports, 2020).

The target in this assay is T1, GltPh (Pyrococcus horikoshii, UniProt O59010).
T1 construct: gene PH1295; WT GltPh, homotrimer, detergent-solubilised (DDM)
T1 sequence (O59010 1-425): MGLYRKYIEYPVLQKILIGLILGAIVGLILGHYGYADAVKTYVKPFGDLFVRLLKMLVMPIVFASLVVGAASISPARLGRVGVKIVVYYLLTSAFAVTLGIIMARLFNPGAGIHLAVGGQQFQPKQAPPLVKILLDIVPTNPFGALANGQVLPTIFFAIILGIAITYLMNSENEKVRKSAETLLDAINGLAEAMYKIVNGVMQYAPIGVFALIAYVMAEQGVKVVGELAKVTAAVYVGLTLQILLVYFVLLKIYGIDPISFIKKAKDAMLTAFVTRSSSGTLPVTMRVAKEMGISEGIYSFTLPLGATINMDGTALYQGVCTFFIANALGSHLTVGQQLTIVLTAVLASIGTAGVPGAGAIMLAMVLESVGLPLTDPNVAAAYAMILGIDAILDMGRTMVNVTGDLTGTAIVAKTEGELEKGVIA
As to the kind of experiment: STD NMR titration, γ-protons; DDM micelles ([…] in proteoliposomes). The assay is classed as binding.

The molecule `N[C@@H](CCC(=O)O)C(=O)O` [L-glutamate] displayed a Kd of 414 µM.

The term Kd denotes the free concentration of one partner at which half of the binding sites on the other are occupied at equilibrium, for simple one-to-one binding. Low values mean higher affinity, high ones lower affinity.
